Measured values published in patent publication US20110015221A1, “PHARMACEUTICAL COMPOSITION OF VINFLUNINE WHICH IS INTENDED FOR PARENTERAL ADMINISTRATION PREPARATION METHOD THEREOF AND USE OF SAME” (PIERRE FABRE MEDICAMENT, priority 2003, published 2011).
Values after ≈ are worked out from the molar mass of the structure shown.

Experiments:
Solubility = details: water
[1] = Stability at 25° C.: total amount of vinflunine-related impurities, pulverulent form vs aqueous solution; format: physicochemical
Description: The stability is monitored by observing the changes in the total amount of vinflunine-related impurities present.

Compound | solubility (Solubility) | increase of the total amount of vinflunine-related impurities ([1]; after storage for 6 months at 25° C.) | % impurity relative to 100% of active principle (total vinflunine-related impurities) ([1]; t0) | % impurity relative to 100% of active principle (total vinflunine-related impurities) ([1]; t3 months, storage at 25° C.) | % impurity relative to 100% of active principle (total vinflunine-related impurities) ([1]; t6 months, storage at 25° C.)
CCC1=C[C@@H]2CN(C1)Cc1c([nH]c3ccccc13)[C@@](C(=O)OC)(c1cc3c(cc1OC)N(C)[C@H]1[C@@](O)(C(=O)OC)[C@H](OC(C)=O)[C@]4(CC)C=CCN5CC[C@]31[C@@H]54)C2 [vinorelbine] | 1000 mg/mL (≈ 1280 mM) |  |  |  | 
CC[C@]12C=CCN3CC[C@@]4(c5cc([C@@]6(C(=O)OC)CC7CC(C(C)(F)F)CN(Cc8c6[nH]c6ccccc86)C7)c(OC)cc5N(C)[C@H]4C(O)(C(=O)OC)[C@@H]1OC(C)=O)[C@@H]32 (stereo partly drawn) [batch 503, 20′,20′-difluoro-3′,4′-dihyrovinorelbine L(+)-tartrate] |  | 197% | 1.17% | 2.75% | 3.48%
CC[C@]12C=CCN3CC[C@@]4(c5cc([C@@]6(C(=O)OC)CC7CC(C(C)(F)F)CN(Cc8c6[nH]c6ccccc86)C7)c(OC)cc5N(C)[C@H]4C(O)(C(=O)OC)[C@@H]1OC(C)=O)[C@@H]32 (stereo partly drawn) [vinflunine, 20′,20′-difluoro-3′,4′-dihydrovinorelbine] | 290 to 330 mg/mL (≈ 355 to 404 mM) |  |  |  | 
